Measurements taken from patent publication US20250206724A1, “SUBSTITUTED 3-AMINO INDAZOLE DERIVATIVES AS KINASE INHIBITORS” (NERVIANO MEDICAL SCIENCES S.R.L., priority 2022, published 2025).
Where a name gives a salt, the structure may show the parent alone.

Molecular target: T1, CDK11A (Homo sapiens, UniProt Q9UQ88)
T1 sequence (Q9UQ88 346-783): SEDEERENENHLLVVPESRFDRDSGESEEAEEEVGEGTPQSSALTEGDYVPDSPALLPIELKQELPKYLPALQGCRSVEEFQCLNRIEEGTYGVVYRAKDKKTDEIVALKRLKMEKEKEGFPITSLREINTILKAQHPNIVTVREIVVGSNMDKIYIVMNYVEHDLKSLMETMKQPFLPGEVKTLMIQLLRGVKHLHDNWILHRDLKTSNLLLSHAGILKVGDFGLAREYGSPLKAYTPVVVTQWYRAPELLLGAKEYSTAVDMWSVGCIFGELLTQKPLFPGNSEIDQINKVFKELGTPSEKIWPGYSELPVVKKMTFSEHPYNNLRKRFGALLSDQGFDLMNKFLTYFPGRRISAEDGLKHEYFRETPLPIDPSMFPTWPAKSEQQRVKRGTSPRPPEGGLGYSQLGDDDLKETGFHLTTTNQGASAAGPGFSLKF
Conditions: displacement of SNS-032-Atto590 probe (0.002 μM) from CDK11A-p58 (0.032 uM), fluorescence polarization
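Also: compound preincubated 30 min with CDK11A-p58, then probe added and polarization (mP) read 15 min later, 0% displacement is probe plus enzyme, 100% is probe alone.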

| DC50 [nM] | SMILES |
| --- | --- |
| 364 | CN1CCC(C(=O)Nc2n[nH]c3ccc(-c4c(F)cccc4F)cc23)CC1 [cpd 105, N-[5-(2,6-Difluorophenyl)-1H-indazol-3-yl]-1-methylpiperidine-4-carboxamide hydrochloride] |
| 63 | CN1CCC(C(=O)Nc2n[nH]c3ccc(-c4cc(C#N)ccc4Cl)cc23)CC1 [cpd 116, N-[5-(2-Chloro-5-cyanophenyl)-1H-indazol-3-yl]-1-methylpiperidine-4-carboxamide trifluoroacetate] |
| 20 | CC(C)NC1CC(C(=O)Nc2n[nH]c3ccc(-c4cc(C#N)ccc4Cl)cc23)C1 (stereo not drawn) [compound 148, N-[5-(2-Chloro-5-cyanophenyl)-1H-indazol-3-yl]-3-(propan-2-ylamino)cyclobutanecarboxamide hydrochloride] |
| 476 | Cc1ccc(F)c(-c2ccc3[nH]nc(NC(=O)C4CCN(C)CC4)c3c2)c1Cl [cpd 73, N-[5-(2-Chloro-6-fluoro-3-methylphenyl)-1H-indazol-3-yl]-1-methylpiperidine-4-carboxamide hydrochloride] |
| 87 | O=C(Nc1n[nH]c2ccc(-c3ccc(Cl)cc3Cl)cc12)[C@@H]1CCCNC1 [cpd 14, (3R)-N-[5-(2,4-Dichlorophenyl)-1H-indazol-3-yl]piperidine-3-carboxamide hydrochloride] |
| 221 | O=C(Nc1n[nH]c2ccc(-c3c(Cl)cccc3Cl)cc12)C12CCN(CC1)CC2 [compound 160, N-[5-(2,6-Dichlorophenyl)-1H-indazol-3-yl]-1-azabicyclo[2.2.2]octane-4-carboxamide] |
| 27 | CC(=O)c1ccc(F)c(-c2ccc3[nH]nc(NC(=O)[C@@H]4CCCNC4)c3c2)c1 [cpd 19, (3R)-N-[5-(5-Acetyl-2-fluorophenyl)-1H-indazol-3-yl]piperidine-3-carboxamide hydrochloride] |
| 71 | O=C(Nc1n[nH]c2ccc(OCCF)cc12)[C@@H]1CCCNC1 [cpd 227, (3R)-N-[5-(2-Fluoroethoxy)-1H-indazol-3-yl]piperidine-3-carboxamide hydrochloride] |
| 706 | CC(OC(=O)C(C)C)OC(=O)N1CCC[C@@H](C(=O)Nc2n[nH]c3ccc(-c4cc(C#N)ccc4Cl)cc23)C1 (stereo partly drawn) [compound 190, 1-[(2-Methylpropanoyl)oxy]ethyl (3R)-3-{[5-(2-chloro-5-cyanophenyl)-1H-indazol-3-yl]carbamoyl}piperidine-1-carboxylate] |
| 406 | COCCOc1ccc2[nH]nc(NC(=O)[C@@H]3CCCNC3)c2c1 [cpd 228, (3R)-N-[5-(2-Methoxyethoxy)-1H-indazol-3-yl]piperidine-3-carboxamide hydrochloride] |
| 308 | CN1CCC(C(=O)Nc2n[nH]c3ccc(-c4ccccc4F)cc23)CC1 [cpd 78, N-[5-(2-Fluorophenyl)-1H-indazol-3-yl]-1-methylpiperidine-4-carboxamide hydrochloride] |
| 94 | COc1ccc(-c2ccc3[nH]nc(NC(=O)[C@@H]4CCCNC4)c3c2)c(C(F)(F)F)c1 [cpd 31, (3R)-N-{5-[4-Methoxy-2-(trifluoromethyl)phenyl]-1H-indazol-3-yl}piperidine-3-carboxamide hydrochloride] |
| 72 | CC(=O)c1ccc(F)c(-c2ccc3[nH]nc(NC(=O)C4CCCNC4)c3c2)c1 (stereo not drawn) [cpd 16, N-[5-(5-Acetyl-2-fluorophenyl)-1H-indazol-3-yl]piperidine-3-carboxamide hydrochloride] |
| 79 | CCCN1CCC(C(=O)Nc2n[nH]c3ccc(-c4cc(C#N)ccc4Cl)cc23)CC1 [compound 141, N-[5-(2-Chloro-5-cyanophenyl)-1H-indazol-3-yl]-1-propylpiperidine-4-carboxamide hydrochloride] |
| 619 | COc1cc(F)c(-c2ccc3[nH]nc(NC(=O)C4CCN(C)CC4)c3c2)c(F)c1 [cpd 120, N-[5-(2,6-Difluoro-4-methoxyphenyl)-1H-indazol-3-yl]-1-methylpiperidine-4-carboxamide hydrochloride] |
| 183 | Nc1cccc(-c2ccc3[nH]nc(NC(=O)C4CCCNC4)c3c2)c1F (stereo not drawn) [cpd 11, N-[5-(3-Amino-2-fluorophenyl)-1H-indazol-3-yl]piperidine-3-carboxamide hydrochloride] |
| 46 | O=C(Nc1n[nH]c2ccc(-c3cc(Cl)ccc3F)cc12)[C@@H]1CCCNC1 [cpd 21, (3R)-N-[5-(5-Chloro-2-fluorophenyl)-1H-indazol-3-yl]piperidine-3-carboxamide hydrochloride] |
| 51 | O=C(Nc1n[nH]c2ccc(-c3ccc(O)cc3Cl)cc12)C1CCCNC1 (stereo not drawn) [cpd 3, N-[5-(2-Chloro-4-hydroxyphenyl)-1H-indazol-3-yl]piperidine-3-carboxamide hydrochloride] |
| 110 | CCCCN1CCC(C(=O)Nc2n[nH]c3ccc(-c4c(F)cccc4Cl)cc23)CC1 [cpd 65, 1-Butyl-N-[5-(2-chloro-6-fluorophenyl)-1H-indazol-3-yl]piperidine-4-carboxamide hydrochloride] |
| 100 | CC(C)OC(=O)c1ccc(Cl)c(-c2ccc3[nH]nc(NC(=O)[C@@H]4CCCNC4)c3c2)c1 [cpd 56, Propan-2-yl 4-chloro-3-(3-{[(3R)-piperidin-3-ylcarbonyl]amino}-1H-indazol-5-yl)benzoate hydrochloride] |
| 592 | CN1CCC(C(=O)Nc2n[nH]c3ccc(-c4ccc(N)cc4)cc23)CC1 [cpd 90, N-[5-(4-Aminophenyl)-1H-indazol-3-yl]-1-methylpiperidine-4-carboxamide dihydrochloride] |
| 55 | CCOc1ccc(F)c(-c2ccc3[nH]nc(NC(=O)[C@@H]4CCCNC4)c3c2)c1 [cpd 22, (3R)-N-[5-(5-Ethoxy-2-fluorophenyl)-1H-indazol-3-yl]piperidine-3-carboxamide hydrochloride] |
| 40 | N#Cc1ccc(Cl)c(-c2ccc3[nH]nc(NC(=O)C4CC(NC5CCCC5)C4)c3c2)c1 (stereo not drawn) [compound 154, N-[5-(2-Chloro-5-cyanophenyl)-1H-indazol-3-yl]-3-(cyclopentylamino)cyclobutanecarboxamide hydrochloride] |
| 90 | CNC(=O)c1ccc(C#N)c(-c2ccc3[nH]nc(NC(=O)[C@@H]4CCCNC4)c3c2)c1 [cpd 55, (3R)-N-{5-[2-Cyano-5-(methylcarbamoyl)phenyl]-1H-indazol-3-yl}piperidine-3-carboxamide hydrochloride] |
| 528 | CC(C)(C)COC(=O)n1nc(NC(=O)[C@@H]2CCC(C)(C)NC2)c2cc(-c3cc(C#N)ccc3Cl)ccc21 (single isomer, unassigned) [cpd 224, 2,2-Dimethylpropyl 5-(2-chloro-5-cyanophenyl)-3-({[(3+)-6,6-dimethylpiperidin-3-yl]carbonyl}amino)-1H-indazole-1-carboxylate hydrochloride] |
| 48 | CNC1CC(C(=O)Nc2n[nH]c3ccc(-c4ccc(O)cc4Cl)cc23)C1 (stereo not drawn) [cpd 63, N-[5-(2-Chloro-4-hydroxyphenyl)-1H-indazol-3-yl]-3-(methylamino)cyclobutanecarboxamide hydrochloride] |
| 467 | CN1CCC(C(=O)Nc2n[nH]c3ccc(-c4ccc(C=O)cc4F)cc23)CC1 [cpd 118, N-[5-(2-Fluoro-4-formylphenyl)-1H-indazol-3-yl]-1-methylpiperidine-4-carboxamide hydrochloride] |
